Assay results from PubChem BioAssay AID1918957 (Molecular Pharmacology Branch, DTP, NCI, 2023).
Values joined by “and” are separate entries in the source; they are usually repeats but may differ in a detail not shown here. Equal entries are not always repeated.

Tested on: NCI-H1876 complex spheroid viability
Assay: Anticancer human tumor NCI-H1876 cell line growth inhibition [LSD1];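 further: spheroids exposed to compounds for one week before readout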;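 on viability, T/C: 100% = DMSO vehicle-treated spheroids so lower means fewer viable cells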
Conditions: for viability, T/C: stronger effect = lower value
How it was run: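 Drug combinations with the LSD1 inhibitor iadademstat tested on tumor cells co-cultured as spheroids with endothelial cells and mesenchymal stem cells. Concentrations descended in half-log increments from clinical Cmax or 10 microM.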

[1] = curve of first compound, second compound 0.1 µM
[2] = curve of first compound, second compound 0.316 µM
[3] = curve of first compound, second compound 1 µM
[4] = curve of first compound, second compound 3.16 µM
[5] = curve of first compound, second compound 10 µM
[6] = second compound 0.1 µM, first compound 0.0316 µM
[7] = second compound 0.1 µM, first compound 0.1 µM
[8] = second compound 0.1 µM, first compound 0.316 µM
[9] = second compound 0.1 µM, first compound 1 µM
[10] = second compound 0.1 µM, first compound 3.16 µM
[11] = second compound 0.1 µM, first compound 10 µM
[12] = second compound 0.316 µM, first compound 0.0316 µM
[13] = second compound 0.316 µM, first compound 0.1 µM
[14] = second compound 0.316 µM, first compound 0.316 µM
[15] = second compound 0.316 µM, first compound 1 µM
[16] = second compound 0.316 µM, first compound 3.16 µM
[17] = second compound 0.316 µM, first compound 10 µM
[18] = second compound 1 µM, first compound 0.0316 µM
[19] = second compound 1 µM, first compound 0.1 µM
[20] = second compound 1 µM, first compound 0.316 µM
[21] = second compound 1 µM, first compound 1 µM
[22] = second compound 1 µM, first compound 3.16 µM
[23] = second compound 1 µM, first compound 10 µM
[24] = second compound 3.16 µM, first compound 0.0316 µM
[25] = second compound 3.16 µM, first compound 0.1 µM
[26] = second compound 3.16 µM, first compound 0.316 µM
[27] = second compound 3.16 µM, first compound 1 µM
[28] = second compound 3.16 µM, first compound 3.16 µM
[29] = second compound 3.16 µM, first compound 10 µM
[30] = second compound 10 µM, first compound 0.0316 µM
[31] = second compound 10 µM, first compound 0.1 µM
[32] = second compound 10 µM, first compound 0.316 µM
[33] = second compound 10 µM, first compound 1 µM
[34] = second compound 10 µM, first compound 3.16 µM
[35] = second compound 10 µM, first compound 10 µM

CC1(C)CCC(CN2CCN(c3ccc(C(=O)NS(=O)(=O)c4ccc(NCC5CCOCC5)c([N+](=O)[O-])c4)c(Oc4cnc5[nH]ccc5c4)c3)CC2)=C(c2ccc(Cl)cc2)C1 + NC1CC1c1ccc(-c2cccc(O)c2)cc1
IC50 [1]: 2.08 µM
IC50 [2]: 2.08 µM
IC50 [3]: 2.17 µM
IC50 [4]: 2.06 µM
IC50 [5]: 1.92 µM
viability, T/C [6]: 111%
viability, T/C [7]: 110%
viability, T/C [8]: 117%
viability, T/C [9]: 108%
viability, T/C [10]: 16.6%
viability, T/C [11]: 6.77%
viability, T/C [12]: 97.1%
viability, T/C [13]: 85.9%
viability, T/C [14]: 122%
viability, T/C [15]: 110%
viability, T/C [16]: 19.3%
viability, T/C [17]: 7.99%
viability, T/C [18]: 99.5%
viability, T/C [19]: 103%
viability, T/C [20]: 105%
viability, T/C [21]: 111%
viability, T/C [22]: 23.3%
viability, T/C [23]: 7.5%
viability, T/C [24]: 113%
viability, T/C [25]: 122%
viability, T/C [26]: 105%
viability, T/C [27]: 99.8%
viability, T/C [28]: 20.6%
viability, T/C [29]: 8.68%
viability, T/C [30]: 112%
viability, T/C [31]: 120%
viability, T/C [32]: 110%
viability, T/C [33]: 89.2%
viability, T/C [34]: 19.8%
viability, T/C [35]: 6.33%

CC(C)c1c(-c2ccccc2)nc2c(C#N)c[nH]n2c1=O + NC1CCC(NC2CC2c2ccccc2)CC1
IC50 [1]: 7.01 µM
IC50 [2]: 7.17 µM
IC50 [3]: 6.83 µM
IC50 [4]: 6.12 µM
IC50 [5]: 6.21 µM
viability, T/C [6]: 100%
viability, T/C [7]: 97.1%
viability, T/C [8]: 109%
viability, T/C [9]: 97%
viability, T/C [10]: 94.2%
viability, T/C [11]: 30.1%
viability, T/C [12]: 90.2%
viability, T/C [13]: 106%
viability, T/C [14]: 103%
viability, T/C [15]: 88.9%
viability, T/C [16]: 93.1%
viability, T/C [17]: 32.4%
viability, T/C [18]: 97.1%
viability, T/C [19]: 101%
viability, T/C [20]: 99.8%
viability, T/C [21]: 95.1%
viability, T/C [22]: 89.7%
viability, T/C [23]: 30.7%
viability, T/C [24]: 99%
viability, T/C [25]: 106%
viability, T/C [26]: 102%
viability, T/C [27]: 92%
viability, T/C [28]: 88.2%
viability, T/C [29]: 22.5%
viability, T/C [30]: 89.4%
viability, T/C [31]: 93.6%
viability, T/C [32]: 92.6%
viability, T/C [33]: 99.3%
viability, T/C [34]: 90.5%
viability, T/C [35]: 21.3%

Nc1ccn(C2OC(CO)C(O)C2(F)F)c(=O)n1 (configuration not stated)
viability, T/C (compound 0.000949 µM): 98.6% and 98.7%
viability, T/C (compound 0.003 µM): 53.8% and 86.9%
viability, T/C (compound 0.00949 µM): 29.2% and 23.5%
viability, T/C (compound 0.03 µM): 23.6% and 9.68%
viability, T/C (compound 0.0949 µM): 11.3% and 8.77%
viability, T/C (compound 0.3 µM): 10.5% and 7.09%
IC50 (curve of compound): 0.0037 µM and 0.00587 µM

O=C(c1cc(Cc2n[nH]c(=O)c3ccccc23)ccc1F)N1CCN(C(=O)C2CC2)CC1 + NC1CCC(NC2CC2c2ccccc2)CC1
IC50 [1]: 6.62 µM
IC50 [2]: 6.16 µM
IC50 [3]: 6.13 µM
IC50 [4]: 5.37 µM
IC50 [5]: 5.05 µM
viability, T/C [6]: 90.7%
viability, T/C [7]: 99.4%
viability, T/C [8]: 89.4%
viability, T/C [9]: 94.8%
viability, T/C [10]: 76.2%
viability, T/C [11]: 35.4%
viability, T/C [12]: 99.2%
viability, T/C [13]: 93%
viability, T/C [14]: 89.4%
viability, T/C [15]: 87.2%
viability, T/C [16]: 69.5%
viability, T/C [17]: 35.5%
viability, T/C [18]: 90.2%
viability, T/C [19]: 93%
viability, T/C [20]: 91.5%
viability, T/C [21]: 79.7%
viability, T/C [22]: 70.5%
viability, T/C [23]: 35.8%
viability, T/C [24]: 90.7%
viability, T/C [25]: 95.4%
viability, T/C [26]: 86.7%
viability, T/C [27]: 86.7%
viability, T/C [28]: 64.5%
viability, T/C [29]: 32.7%
viability, T/C [30]: 95.7%
viability, T/C [31]: 90.6%
viability, T/C [32]: 85.9%
viability, T/C [33]: 79.8%
viability, T/C [34]: 64.6%
viability, T/C [35]: 29.9%
